Experimental data: patent US20150141506A1, “INDANE DIMERS FOR USE IN THE TREATMENT OF AUTOIMMUNE INFLAMMATORY DISEASE” (Venantius Limited, priority 2012, published 2015)
Converted amounts (≈) assume the structure as drawn. Read-outs that look alike come from different tables or passages of the source. Marks after values point to notes of the source that are not given here.

What was measured:
[1] = Partition coefficient (Log10 POW) by HPLC method; format: physicochemical; settings: reverse phase C18 HPLC; for Log10 POW, Acid: acidic pH; for Log10 POW, Basic: alkaline pH; for Log10 POW, Neutral: neutral pH
[2] = Solubility in Milli-RO water and pH buffers; format: physicochemical
Protocol: The sodium salt, potassium salt, calcium salt, α-methylbenzylamine salt and N-Methyl-(D)-Glucamine salt were synthesised.
The solubility of the four compounds were determined: […]

[3] = system: IL2 release from Jurkat cells; assay: Effect of compounds on IL-2 secretion in T lymphocytes (Jurkat 6.1, anti-CD3/anti-CD28 stimulated, ELISA); format: cell-based; settings: 30 min pre-treatment, 24 h, DMSO control 320.67 (plate 2), 338.25 (plate 3)
Protocol: The T cell line Jurkat 6.1 (ATCC) was used. Cells were pre-treated for 30 min with 1 μM or 10 μM of the respective compound and then stimulated with plate-bound anti-CD3 (BD Pharmingen) and anti-CD28 (AnCell). DMSO was used as vehicle control. […] After 24 hs the supernatant was collected and IL-2 secretion was measured by ELISA.
Compounds were prepared by dissolution in DMSO to yield final concentrations of 1 and 10 μg/ml

[4] = system: 5% DSS colitis in BALB/c mice; assay: Acute murine 5% DSS colitis model, Experiment 1; format: in vivo
Source text: The study is widely used as a model for studying the pathogenesis of UC and also for screening new therapeutic interventions for the treatment of UC.
In these studies, an acute colitis model was used, with 5% DSS administered in the drinking water of BALB/c mice. This dosage regime induces severe acute colitis, by days 7-8 mice had overt rectal bleeding and marked weight loss; unless sacrificed beforehand, all mice would have died by days 10-12.
Specific Pathogen-Free BALB/c mice, 6-8 weeks of age, were obtained from a commercial supplier (Harlan UK). Mice were fed irradiated diet and housed in individually ventilated cages (Tecniplast UK) under positive pressure.
DSS (5%) was dissolved in drinking water. Compounds were administered orally at a dose of 10 mg/kg or 30 mg/kg on days 0-7, and mice were culled on day 8 or day 9, depending on the severity of the disease. The mice were checked each day for morbidity and the weight of individual mice was recorded. Induction of colitis was determined upon autopsy, length of colon and histology. Colons were recovered and stored at −20° C. for immunological analysis. All of the compounds and experimental groups are randomly alphabetically labelled. Throughout experiments all data recording was performed in a blind manner. The codes on boxes/groups were not broken until after the data was analysed i.e. boxes labelled A, B, C etc were identified as untreated, DSS-treated, or DSS+compound-treated.
To quantify the extent of colitis, a disease activity index (DAI) was determined based on weight loss, faecal blood and stool consistency. A score was given for each parameter, with the sum of the scores used as the DAI. For each treatment group n=8.
All compounds were prepared for oral gavage (0.1 mL per os (p.o.) per 10 g body weight) as a suspension in 0.5% carboxymethyl cellulose/2% Tween 80, at a dose of 3-30 mg/Kg.

[5] = system: 5% DSS colitis in BDF 1 mice; assay: 5% DSS murine colitis, Experiment 2 (Method 2); format: in vivo; settings: day 7, 10 ml/kg oral gavage daily day 0-6, 5-ASA 100 mg/kg; for DAI versus vehicle: 31 at 2 mg/ml, 47 at 4 mg/ml
Source text: A total of 90 BDF 1 (H. Pylori-free, murine norovirus-free) male mice (Harlan Laboratories, UK) were used in the study. Animals were 8-10 weeks old on supply and used at 10-12 weeks of age. All mice were held in individually ventilated cages (IVCs) in an SPF (Specific Pathogen Free) barrier unit. The animals were identified by numbered cages and by ear punches.
Mice were randomised into study groups. All the mice in any one cage received the same treatment and were ear punched for identification purposes. Daily body weight measurements were used to calculate the volume of test item or vehicle administered in the applicable groups.
DSS (MP Biomedicals 0216011090, lot# M2709) was prepared as a 5% (w/v) solution in the drinking water and made fresh daily on days 0 to 6 inclusive. DSS was administered from day 0 to day 7.
Test items were stored at −20° C. until the initiation of the study. Each test item was formulated as a homogenous suspension in 0.5% carboxymethyl cellulose (CMC, Sigma C4888) in sterile water (Sigma W3500, lot# RNBC1419), using an Ultraturax homogeniser, on study day −1. Compound 31 was formulated at 2 mg/ml and 47 was formulated at 4 mg/ml. After formulation the test item and the vehicle stocks anonymised with a letter code. All solutions were stored at 4° C. during the study, with 3.8 ml of each suspension being dispensed daily. Test items were administered by oral gavage, daily at 09.00 hrs, at 10 ml/kg, from study day 0 to study day 6.
5-ASA (5-Aminosalicylic acid, Sigma A3537, lot#051M1878V) was aliquoted into pre-weighed amounts between 71 and 84 mg. Like test item suspensions, these aliquots were anonymised by a letter code. […]
Any animal was culled if the weight loss was greater than 20%. Animal well-being was monitored daily. Once daily from day 0 until the end of the study, all mice were weighed and assessed for stool consistency, and the presence of overt blood in the stool or around the anus according to the criteria in 2.1 […]

[6] = day 7, 10 mg/kg daily for 7 days, vehicle 9.3±0.51

SMILES | Log10 POW, Acid [1] | Log10 POW, Basic [1] | Log10 POW, Neutral [1] | solubility ([2]; Milli-RO water, water, read-out: solubility, Milli-RO H20) [µg/mL] | aqueous solubility, in words ([2]; free acid enantiomers) | solubility ([2]; pH 4.0 buffer, pH 4, aqueous buffer, read-out: solubility, pH 4.0 Buffer) [µg/mL] | solubility ([2]; pH 7.0 buffer, pH 7, aqueous buffer, read-out: solubility, pH 7.0 Buffer) [µg/mL] | solubility ([2]; pH 9.0 buffer, pH 9, aqueous buffer, read-out: solubility, pH 9.0 Buffer) [µg/mL] | IL-2 production, absolute values ([3]; compound 1 uM) [pg/mL] | IL-2 production, absolute values ([3]; compound 10 uM) [pg/mL] | activity in 5% DSS murine colitis (DAI), in words ([4]; 30 mg/kg p.o. daily for 7 days) | disease activity index (DAI) [4, 6] | disease activity index (DAI) ([4]; day 7, 30 mg/kg p.o. daily for 7 days, vehicle 9.0±0.53) | solubility, Milli-RO H20 ([2]; Milli-RO water, listed as Compound 5 N-Methyl-D-Glucamine salt) | solubility, pH 4.0 Buffer ([2]; pH 4.0 buffer) [μg/mL] | solubility, pH 7.0 Buffer ([2]; pH 7.0 buffer, listed as Compound 5 N-Methyl-D-Glucamine salt) | solubility, pH 9.0 Buffer ([2]; pH 9.0 buffer, listed as Compound 5 N-Methyl-D-Glucamine salt) | DAI versus vehicle [5] | loss of body weight versus vehicle control ([5]; 47 formulated at 4 mg/ml)
O=C(O)c1ccc(C[C@]2(C3=Cc4ccccc4C3)Cc3ccccc3[C@H]2O)cc1 [Compound 5, 4-(((1S,2R)-1-hydroxy-2,3-dihydro-1H,1′H-2,2′-biinden-2-yl)methyl)benzoic acid] | 3.9 | 3.7 | 3.7 | 1.38 (≈ 3.61 µM) | limited aqueous solubility | 0.33 (≈ 0.863 µM) | 320 (≈ 837 µM) | 370 (≈ 966 µM) | 127.29 | 134.14 | highly active | no significant (P>0.05) effect | 3.2±0.73 |  |  |  |  |  | 
CNCC(O)C(O)C(O)C(O)CO.O=C(O)c1ccc(C[C@]2(C3=Cc4ccccc4C3)Cc3ccccc3[C@H]2O)cc1 [Compound 7, 6-(Methylamino)hexane-1,2,3,4,5-pentanol 4-(((1S,2R)-1-hydroxy-2,3-dihydro-1H,1′H-2,2′-biinden-2-yl)methyl)benzoate] | 3.8 | 3.5 | 3.5 |  |  |  |  |  |  |  |  | no significant (P>0.05) effect |  | >60,000* μg/mL | 0.14 | >60,000* μg/mL | >60,000* μg/mL |  | 
NCC(=O)O[C@@H]1c2ccccc2C[C@@]1(Cc1ccc(C(=O)O)cc1)C1=Cc2ccccc2C1 [Compound 31, 4-{[(1′S,2′S)-1′-(glycyloxy)-1′,3′-dihydro-1H,2′H-2,2′-biinden-2′-yl]methyl}benzoic acid] |  |  |  |  |  |  |  |  | 233.38 | 225.63 |  |  |  |  |  |  |  | reduced DAI comparable or equal to 5ASA | 
O=C(Nc1ccc(O)c(C(=O)O)c1)c1ccc(C[C@@]2(C3=Cc4ccccc4C3)Cc3ccccc3[C@H]2O)cc1 [Compound 47, 2-hydroxy-5-(4-(((1S,2S)-1-hydroxy-2,3-dihydro-1H,1′H-[2,2′-biinden]-2-yl)methyl)benzamido)benzoic acid] |  |  |  |  |  |  |  |  | 99.64 | 98.79 |  |  |  |  |  |  |  | reduced DAI comparable or equal to 5ASA | does not result in an increase in loss of body weight
